# Measurements from US20260325538A1, “THERAPY” (priority 2023, published 2026).
# How the values were obtained:
# [1] = tested on: Klebsiella pneumoniae Kpn St147 (NDM-1 and KPC-2); assay: MIC determination of cefepime with zinc chelator and avibactam (checkerboard, broth microdilution); assay type: cell-based
# Method: Antimicrobial susceptibility testing (AST) by broth microdilution was performed according to The European Committee on Antimicrobial Susceptibility Testing. Reading guide for broth microdilution. Version 4.0, 2022 (see: http://www.eucast.org).
# Checkerboard 96-well plates (Corning 3788) were made by conducting serial two-fold dilutions of cefepime in cation-adjusted Mueller Hinton II broth (caMHB; Thermo Scientific, T3462), in columns across the microtiter plate (64-0.03 μg/ml). Additionally, avibactam was added to rows 3 to 8 in concentrations of 64, 16, 8, 4, 1 and 0.25 μg/ml, respectively. The zinc chelator was added to the wells of the plate, where applicable. Three plates were made per experiment, one without the zinc chelator (plate 1), one with 16 μg/ml of the zinc chelator (plate 2) and one with 32 μg/ml of the zinc chelator (plate 3). The first row in all plates was used as a positive control for cefepime only, and the second row included the zinc chelator in addition to cefepime (no avibactam added to rows 1 or 2). The zinc chelator was added at the indicated concentration, to rows 3-8 of plates 2 and 3.
# The effect of the combination of zinc chelator/FEP/avibactam was tested on a clinically isolated Klebsiella pneumoniae Kpn St147 actively constitutionally expressing the two resistance mechanisms NDM-1 and KPC-2 simultaneously. As a negative control, bacteria+FEP was tested alone. As a positive control, bacteria+FEP+zinc chelator was used. In Tables 1 and 2, concentrations (μg/ml) of FEP are given in the top row left to right and avibactam concentrations (μg/ml) are given top to bottom in column 1.
# The fractional inhibitory concentration (FIC) is defined as the concentration that kills when used in combination with another agent divided by the concentration that has the same effect when used alone. The FIC index (FICI) for the combination of two agents is the sum of their individual FIC values. […] The European Committee for Antimicrobial Susceptibility Testing (EUCAST) of the European Society of Clinical Microbiology and Infectious Diseases (ESCMID) 2000 adopts the following definitions to determine the susceptibility of bacteria to an antimicrobial agent (see EUCAST Definitive Document E. Def 1.2: Terminology relating to methods for the determination of susceptibility of bacteria to antimicrobial agents. Clin. Microbiol. Infect. 2000; 6(9): 503-508): • FICI value≤0.5; synergy • 0.5<FICI value≤1; additive effect • 1<FICI value≤2; indifferent effect • FICI≥2; antagonistic effect
# To test for synergy, all data were subjected to the following formula in which A=zinc chelator; B=cefepime; and C=avibactam:
# ΣFICI=MICA(combination)/MICA (alone)+MICB(combination)/MICB (alone)+MICC(combination)/MICC (alone)
# [2] = tested on: many strains of Acinetobacter baumannii; conditions: in combination with meropenem; cited from earlier work
structure (smiles),measurement,setting,value
CN(C[C@H](O)[C@@H](O)[C@H](O)[C@H](O)CO)C(=O)c1ccc(CN(Cc2ccccn2)Cc2ccccn2)nc1 [zinc chelator],FICI Zinc Chelator,"[1]; zinc chelator 8 μg/mL, with FEP and avibactam",0.004
same,amplification of the inhibitory effect,"[1]; zinc chelator at 16 μg/ml, with cefepime and avibactam",about 16 fold
same,effect of combination with meropenem,[2],poor effect
